Assay results published in patent publication US6365570B1, “Pharmaceutical and diagnostic use of Serum Amyloid P component” (priority 1999, dated 2002).
“Also recorded” adds a separate entry of the source.

Columns and labels:
LPS of Salmonella Re595 = assay: Binding to LPS-Beads, SDS-PAGE analysis; conditions: FIG. 1A and 1B, serum pre-incubated with free ReLPS
Experimental: 1.1 Materials and method A 1 mg/ml solution of LPS of Salmonella Re595 (Sigma; L9764) in carbonate buffer (0.1 M, pH 9.5) is incubated for 24 hours with 5×10^7 DynaBeads™ (M450, Dynal A. S., Oslo, Norway) activated with Tosyl. The beads loaded with LPS are washed 3x and stored in HBSS+0.1% Na-azide (5×10^7 b/ml). A 10% dilution (1 to 10 dilution) of serum of healthy volunteers is mixed with 5×10^6 LPS-Beads for 30 minutes at 22° C. The serum has optionally been incubated before hand with different concentrations of free LPS. The beads are washed 3x with HBSS (Gibco BRL, Gaithersburg, Md., US) and subsequently resuspended in 25 μl SDS-PAGE sample buffer (with 2% SDS and 2.5% DTT). After boiling for 3 minutes at 100° C. the sample is analyzed on a 12.5% SDS-PAGE (Mini-ProteanII; Bio-Rad). The proteins present are stained with Coomassie Blue. A sample with Marker proteins of known sizes (Bio-Rad) serves as reference. For identification the proteins are transferred after SDS-PAGE to nitrocellulose paper by means of a Mini Trans-Blotter™. The proteins are stained with Coomassie Blue, and the protein around 30 kDa is […] and dissolved in buffer. The sequence of this sample is determined. SAP is isolated from normal human serum by making use of the Ca-dependent binding to Sepharose. […]

[1] = tested on: LPS priming of neutrophils; assay: Inhibition of LPS priming of neutrophils (fMLP/luminol luminescence); type: cell-based, human; conditions: 1 ng/ml ReLPS, 30 ng/ml r-LBP, 30 minutes at 37° C., fMLP stimulus, FIG. 3
Source text: 4.1 Materials and method Neutrophils are isolated from heparin blood of healthy volunteers via a Histopaque-Picoll gradient in accordance with a standard method (Van Amerafoort, E. S. & J. A. G. van Strijp, Cytometry 17, 294-301 (1994). The remaining erythrocytes in the neutrophil fraction are lysed with sterile water (for 30 seconds) and, after reinstatement of the isotonicity, the fraction is washed. The cells are finally inserted (suspended) in HGSS+2% Human Serum Albumin (HSA). Cells (1×10^4) are incubated with 1 ng/ml ReLPS, 30 ng/ml recombinant LPS-binding protein (r-LPS) and a sample SAP in a total volume of 100 μl for 30 minutes at 37° C. The samples are subsequently placed in a luminometer (Berthold; Autolumat LB953), whereafter via automatic injection luminol (180 μM) and 1 μM fMLP (formylmethyonyl-leucyl-phenylalanine) are added as stimulus to each tube. The luminescence response is measured continuously for 15 minutes and the results expressed as total luminescence response (area under the graph). See also Weersink et al., Immunology 83, 617-623 (1994).

[2] = target: binding of LPS to monocytes; assay: Inhibition of FITC-LPS binding to monocytes (flow cytometry); type: cell-based, human; conditions: for IC50: FITC-LPS 2.5 ng/ml, 30 ng/ml recombinant LBP, mononuclear cells of healthy volunteers, 30 minutes at 37° C., read-out: 50% inhibition concentration; for inhibition of binding of LPS to monocytes (in words): FITC-LPS binding to monocytes in vitro, FIG. 2 / FIG. 4
Experimental: 2.1 Materials and method LPS of Salmonella Re595 (ReLPS, supra) is labelled with FITC (Sigma; F7250) under conditions in which LPS is present as monomer, resulting in a FITC-LPS preparation with a ratio of 1 molecule FITC per molecule PLS. After extension desalting and dialysis against PBS, the stock solution of FITC-LPS is stored at −20° C. Mononuclear leukocytes (monocytes and lymphocytes) are isolated from heparin blood of healthy volunteers via a Ficol (Pharmacial) gradient in accordance with a standard method. After washing the cells are resuspended in isotonic HEPES buffer (with 1 mM CalCl2 and 2% BSA). Preparations with SAP are mixed with FITC-LPS and subsequently added to 3×10^5 mononuclear cells and 30 ng/ml recombinant LSP (obtained from Dr. Lichtenstein) in a total volume of 50 μl and a FITC-LPS concentration of 2.5 ng/ml. After an incubating period of 30 minutes at 37° C., the samples are stored on ice. Analysis of monocyte-associated FITC-LPS binding takes place with PAC Scan™ Flow cytometer. Forward and Sideward Scatter parameters are used to identify the monocyte population. With LysisII™ software (Beckton & Dickinson) the average fluorescence value of 5000 monocytes is calculated. See also Weersing A. J. L. et al., J. Immunol. 145, 318-324 (1990)).
3.1 Materials and method The test was performed in the same manner as described in example 2. However, SAP fragments (peptides) were used instead of SAP. The amino acid composition of the tested peptides is shown in table 2, as well as the concentration at which 50% inhibition occurs.

Substance	binding to LPS-Beads / free LPS (LPS of Salmonella Re595)	activation (priming) of neutrophils by LPS [1]	IC50 [2]	inhibition of binding of LPS to monocytes (in words) [2]
Serum Amyloid P component [SAP]	capable of binding with free LPS; also recorded: binds to the LPS-Beads	greatly reduced	0.05 µM	concentration-dependent inhibition
SAP fragment, amino acids 27-34: Glu Lys Pro Leu Gln Asn Phe Thr, SEQ ID NO 8 (EKPLQNFT; Fragment of the Serum Amyloid P component, peptide 27-34) [PEP 27-34]			> 106 µM	
SAP fragment, amino acids 33-38: Phe Thr Leu Cys Phe Arg, SEQ ID NO 2 (FTLCFR; Fragment of the Serum Amyloid P component, peptides 33-38) [PEP 33-38]				acceptable activity
SAP fragment, amino acids 32-39: Asn Phe Thr Leu Cys Phe Arg Ala, SEQ ID NO 3 (NFTLCFRA; Fragment of the Serum Amyloid P component, peptides 32-39) [PEP 32-39]			2 µM	acceptable activity
SAP fragment, amino acids 28-35: Lys Pro Leu Gln Asn Phe Thr Leu, SEQ ID NO 7 (KPLQNFTL; Fragment of the Serum Amyloid P component, peptide 28-35) [PEP 28-35]			> 100 µM	
SAP fragment, amino acids 27-39: Glu Lys Pro Leu Gln Asn Phe Thr Leu Cys Phe Arg Ala, SEQ ID NO 1 (EKPLQNFTLCFRA; Fragment of the Serum Amyloid P component, peptides 27-39; listed as Homo sapiens) [PEP 27-39]			0.1 µM	very good activity
SAP fragment, amino acids 29-36: Pro Leu Gln Asn Phe Thr Leu Cys, SEQ ID NO 5 (PLQNFTLC; Fragment of the Serum Amyloid P component, peptide 29-36) [PEP 29-36]			6.5 µM	acceptable activity
SAP fragment, amino acids 30-37: Leu Gln Asn Phe Thr Leu Cys Phe, SEQ ID NO 4 (LQNFTLCF; Fragment of the Serum Amyloid P component, peptide 30-37) [PEP 30-37]			4.5 µM	acceptable activity
